This note sets out measurements from patent US20030232986A1, “Inhibitors of caspases” (Vertex Pharmaceuticals Incorporated, priority 1998, published 2003).

Assay [1] has as its system Human Peripheral Blood Mononuclear Cells (PBMC), mature IL-1β. The assay is described as follows: PBMC cell assay: IL-1β assay with human peripheral blood mononuclear cells. Type of assay: cell-based. Particulars: LPS-stimulated human PBMC, mature IL-1β in supernatant by ELISA. An outline of the steps:
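Donor PBMC (suspension at 6×10^6 cells/ml) or adherent-enriched monocytes were stimulated with 5 ng/ml LPS (final) alongside 5–6 compound dilutions bracketing the ICE Ki, at 0.1% DMSO final, for 16–18 hr at 37° C, 5% CO2. Mature IL-1β in supernatants was measured by ELISA; IC50 was calculated relative to LPS-only controls.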
(In general: An ELISA detects its analyte on a solid surface through an enzyme-linked reagent.)

For assay [2], the target named is T1, Caspase-3 (Homo sapiens, UniProt P42574).
T1 sequence (P42574 29-175 limits assumed): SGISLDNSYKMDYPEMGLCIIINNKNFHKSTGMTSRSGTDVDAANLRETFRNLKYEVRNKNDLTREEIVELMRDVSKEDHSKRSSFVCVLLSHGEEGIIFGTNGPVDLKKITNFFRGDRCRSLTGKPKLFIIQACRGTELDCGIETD
T1 sequence (P42574 176-277 limits assumed): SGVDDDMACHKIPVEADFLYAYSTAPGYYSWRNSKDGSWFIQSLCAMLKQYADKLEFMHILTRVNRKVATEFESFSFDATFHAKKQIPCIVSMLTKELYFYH
The assay is described as follows: Caspase-3 enzyme inhibition (Ki). Type of assay: biochemical. Particulars: substrate Ac-DEVD-pNA 60 μM, 8% glycerol in buffer, 37° C. The protocol:
(§1) Ki values for test compounds with the various caspases were obtained by the method of Margolin et al. (J. Biol. Chem., 272 pp. 7223-7228 (1997)). Assays were performed in 10 mM Tris (Sigma Corp, St Louis Mo.) pH 7.5, 1 mM Dithiothreitol (DTT, Research Organic INC, Cleveland, Ohio) and 0.1% CHAPS (Pierce, Rockford Ill.) at 37° C. For caspase-3, a solution of 8% glycerol was added to the assay buffer to improve enzyme stability. A 65 μL aliquot of the assay buffer and 5 μL aliquot of the appropriate dilutions of inhibitor in DMSO where pipetted into a 96 well plate, treated with 10 μL of caspase, then diluted in assay buffer (0.5-40 nM active protein by active site titration). A control containing DMSO but no compound was included for each determination. The plates were then incubated for 15 minutes at 37° C., before addition of the appropriate substrate (20 μL, final concentration 1-4×KM, final assay volume 100 μL) to initiate the reaction. Reaction rates were measured at 37° C. either by following the time dependant increase in absorbance at 405 nm (for the pNA substrates) or in fluorescence (Ex 390, Em 460) (for the AMC substrates). The rates obtained were plotted against inhibitor concentration and the data fit to the Morrison tight-binding equation for competitive inhibitors (Morrison, J. F., Biochem. Biophys. Acta, 185 pp. 269-286 (1969)). The substrates used for the individual assays were as follows:
Caspase-3 Ac-DEVD-pNA (Bachem, King of Prussia, Pa.) (final concentration in assay, 60 μM)

Assay [3] addresses Caspase-8 (Homo sapiens, UniProt Q14790). Put plainly: Caspase-8 enzyme inhibition (Ki). Particulars: substrate Ac-DEVD-pNA 80 μM, 37° C. Type of assay: biochemical. The protocol: as §1
Caspase-8 Ac-DEVD-pNA (Bachem, King of Prussia, Pa.) (final concentration in assay 80 μM).

Structures are written as SMILES. Where a SMILES comes first, the peptide text is derived from it. The star is where a group is joined. Bz = O=C(c1ccccc1)*

Caspase-8, sequence (Q14790 217-374 limits assumed): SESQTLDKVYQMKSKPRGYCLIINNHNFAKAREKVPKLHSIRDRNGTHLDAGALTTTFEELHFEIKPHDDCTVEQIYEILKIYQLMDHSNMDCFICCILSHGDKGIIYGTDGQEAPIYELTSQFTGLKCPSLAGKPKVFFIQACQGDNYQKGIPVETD
Caspase-8, sequence (Q14790 385-479 limits assumed): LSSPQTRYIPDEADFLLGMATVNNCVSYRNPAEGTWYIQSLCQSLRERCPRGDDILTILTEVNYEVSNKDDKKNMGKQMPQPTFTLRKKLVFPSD

`CC(C)[C@H](NC(=O)c1ccccc1)C(=O)N1CC(c2ccccc2)[C@H]1C(=O)N[C@H](C=O)CC(=O)O` (stereo partly drawn) [Example 24a] returned an IC50 in assay [1] of 500 to 1000 nM. The compound further yielded a Ki in assay [2] of over 1000 nM. In assay [1], `CC[C@H](NC(=O)c1cc(Cl)c(O)c(Cl)c1)C(=O)N1CCC[C@H]1C(=O)N[C@H](C=O)CC(=O)O` [Example 20m] gave an IC50 of 500 to 1000 nM.

In the case of `O=C[C@H](CC(=O)O)NC(=O)[C@@H]1CCCN1C(=O)[C@H](Cc1cccnc1)NC(=O)c1nccc2ccccc12` [Example 20f], the IC50 in assay [1] is 500 to 1000 nM. Consider `COc1c(C)cc(C(=O)N[C@@H](C)C(=O)N2CCC[C@H]2C(=O)N[C@H](C=O)CC(=O)O)cc1C` [Example 122d, 3-({1-[2-(4-Methoxy-3,5-dimethyl-benzoylamino)-propionyl]-pyrrolidine-2-carbonyl}-amino)-4-oxo-butyric acid], for which the inhibition constant Ki in assay [3] and in assay [2] was over 1000 nM each time. The IC50 in assay [1] lay within 500 to 1000 nM.

In the case of `CC(=O)Nc1ccc(C(=O)N[C@@H](C)C(=O)N2CCC[C@H]2C(=O)N[C@H](C=O)CC(=O)O)cc1Cl` [Example 122f, 3-({1-[2-(4-Acetylamino-3-chloro-benzoylamino)-propionyl]-pyrrolidine-2-carbonyl}-amino)-4-oxo-butyric acid], the values for the Ki in assay [3] and in assay [2] were 10 to 1000 nM and over 1000 nM, respectively. The compound also showed an IC50 in assay [1] of 500 to 1000 nM. As for `CC(C)[C@H](NC(=O)c1nccc2ccccc12)C(=O)N1CC[C@H](C)[C@H]1C(=O)N[C@H](C=O)CC(=O)O` [Example 26c], the IC50 in assay [1] fell in the range of 500 to 1000 nM. In the case of `COc1ccc(C(=O)NC(C(=O)N2CCCC2C(=O)NC(C=O)CC(=O)O)C(C)C)cc1` (stereo not drawn) [Example 57, 3-({1-[2-(4-Methoxy-benzoylamino)-3-methyl-butyryl]-pyrrolidine-2-carbonyl}-amino)-4-oxo-butyric acid], the IC50 in assay [1] fell in the range of 500 to 1000 nM. `CSC[C@H](NC(=O)c1nccc2ccccc12)C(=O)N1CCC[C@H]1C(=O)N[C@H](C=O)CC(=O)O` [Example 20g] displayed an IC50 in assay [1] of under 500 nM. With `CC(C)[C@H](NC(=O)c1nccc2ccccc12)C(=O)N1CCC[C@H]1C(=O)N[C@H](C=O)CC(=O)O` [Example 5c], in assay [1], the IC50 was 500 to 1000 nM. Turning to `C[C@H](NC(=O)c1cc(Cl)c(O)c(Cl)c1)C(=O)N1CCC[C@H]1C(=O)N[C@H](C=O)CC(=O)O` [Example 122k, 3-({1-[2-(3,5-Dichloro-4-hydroxy-benzoylamino)-propionyl]-pyrrolidine-2-carbonyl}-amino)-4-oxo-butyric acid], the Ki was 10 to 1000 nM in assay [3] and over 1000 nM in assay [2]. In assay [1], this compound registered an IC50 of under 500 nM. Take `CS(=O)(=O)CC[C@H](NC(=O)c1nccc2ccccc12)C(=O)N1CCC[C@H]1C(=O)N[C@H](C=O)CC(=O)O` [Example 20h]: the IC50 in assay [1] is under 500 nM. As for `COc1ccc(C(=O)N[C@@H](C)C(=O)N2CCC[C@H]2C(=O)N[C@H](C=O)CC(=O)O)cc1` [Example 7f], the Ki in assay [3] and in assay [2] was over 1000 nM each time. The compound also yielded an IC50 in assay [1] of over 2000 nM. Take `COc1c(Cl)cc(C(=O)N[C@@H](C)C(=O)N2CCC[C@H]2C(=O)N[C@H](C=O)CC(=O)O)cc1Cl` [Example 122c, 3-({1-[2-(3,5-Dichloro-4-methoxy-benzoylamino)-propionyl]-pyrrolidine-2-carbonyl}-amino)-4-oxo-butyric acid]: in assay [1], the IC50 was over 2000 nM.

In assay [1], `C[C@H](NC(=O)c1ccc(N)c(Cl)c1)C(=O)N1CC(F)(F)C[C@H]1C(=O)N[C@H](C=O)CC(=O)O` [Example 27a] had an IC50 of under 500 nM. As to `COc1ccc(C(=O)NC(C(=O)N2CCCC2C(=O)NC(C=O)CC(=O)O)C(C)(C)C)cc1` (stereo not drawn) [Example 69, 3-({1-[2-(4-Methoxy-benzoylamino)-3,3-dimethyl-butyryl]-pyrrolidine-2-carbonyl}-amino)-4-oxo-butyric acid], the values for the Ki in assay [3] and in assay [2] were 10 to 1000 nM and over 1000 nM, respectively. In assay [1], this compound returned an IC50 of under 500 nM. In assay [1], `Cc1cc(C(=O)N[C@H](C(=O)N2CCCC2C(=O)N[C@H](C=O)CC(=O)O)C(C)C)cc(C)c1O` (stereo partly drawn) [Example 65, 3-({l-[2-(4-Hydroxy-3,5-dimethyl-benzoyiamino)-3-methyl-butyryl]-pyrrolidine-2-carbonyl}-amino)-4-oxo-butyric acid] showed an IC50 of 500 to 1000 nM. Compound `C[C@H](NC(=O)[C@@H](NC(=O)c1nccc2ccccc12)C(C)(C)C)C(=O)N[C@H](C=O)CC(=O)O` [Example 29g] displayed an IC50 in assay [1] of 500 to 1000 nM. For `C[C@H](NC(=O)c1nccc2ccccc12)C(=O)N1CCC[C@H]1C(=O)N[C@H](C=O)CC(=O)O` [Example 7d], the Ki in assay [3] was 10 to 1000 nM; in assay [2] it was over 1000 nM. The IC50 in assay [1] was under 500 nM. In the case of `CC(C)[C@H](NC(=O)c1nccc2ccccc12)C(=O)N1[C@@H](c2ccccc2)CC[C@H]1C(=O)N[C@H](C=O)CC(=O)O` [Example 26f], in assay [1], the IC50 was under 500 nM. With `CC(C)[C@H](NC(=O)c1nccc2ccccc12)C(=O)N1C2CCCCC2C[C@H]1C(=O)N[C@H](C=O)CC(=O)O` (stereo partly drawn) [Example 26e], the half-maximal inhibitory concentration (IC50) in assay [1] was under 500 nM. `COCC(=O)N1CCN(C(=O)[C@H](C)NC(=O)c2ccc(N)c(Cl)c2)[C@H](C(=O)N[C@H](C=O)CC(=O)O)C1` [Example 18f] showed an IC50 in assay [1] of over 2000 nM. `CC(C)[C@H](NC(=O)c1nccc2ccccc12)C(=O)N1CC(c2ccccc2)[C@H]1C(=O)N[C@H](C=O)CC(=O)O` (stereo partly drawn) [Example 24c] gave an IC50 in assay [1] of under 500 nM.

As for `CC(C)[C@H](NC(=O)c1ccccc1)C(=O)N[C@@H](C)C(=O)N[C@H](C=O)CC(=O)O` [Example 29a] (Bz-Val-Ala-Asp-aldehyde), in assay [1], the IC50 is under 500 nM. In assay [2], this compound showed a Ki of over 1000 nM. Regarding `CC(C)[C@H](NC(=O)c1cc(Cl)c(O)c(Cl)c1)C(=O)N1CCC[C@H]1C(=O)N[C@H](C=O)CC(=O)O` [Example 5m], the IC50 in assay [1] was under 500 nM. In the case of `C[C@H](NC(=O)c1ccc(N)c(Cl)c1)C(=O)N1CCC[C@H]1C(=O)N[C@H](C=O)CC(=O)O` [Example 122b, 3-({-[2-(4-Amino-3-chloro-benzoylamino)-propionyl]-pyrrolidine-2-carbonyl}-amino)-4-oxo-butyric acid], the Ki is 10 to 1000 nM in assay [3] and over 1000 nM in assay [2]. Further, in assay [1], the IC50 is 500 to 1000 nM. Take `CC(C)[C@H](NC(=O)c1cccc2c1-c1ccccc1C2=O)C(=O)N1CCC[C@H]1C(=O)N[C@H](C=O)CC(=O)O` [Example 5k]: the IC50 in assay [1] was over 2000 nM.

On to `C[C@H](NC(=O)c1cccc2c1-c1ccccc1C2=O)C(=O)N1CCC[C@H]1C(=O)N[C@H](C=O)CC(=O)O` [Example 122a], for which the IC50 in assay [1] was over 2000 nM. For `COc1ccc(C(=O)NC(C(=O)N2N=C(C(C)(C)C)SC2C(=O)NC(C=O)CC(=O)O)C(C)C)cc1` (stereo not drawn) [Example 46b], the IC50 in assay [1] was over 2000 nM. This compound also displayed an inhibition constant (Ki) in assay [2] of 10 to 1000 nM.

As for `Cc1cc(C(=O)N[C@@H](C)C(=O)N2CCC[C@H]2C(=O)N[C@H](C=O)CC(=O)O)cc(C)c1O` [Example 7c], the Ki in assay [3] and in assay [2] was over 1000 nM throughout. For the same compound, the IC50 in assay [1] was under 500 nM.

Broadly, the IC50 is the concentration at which inhibition is half-maximal. One may read the Ki as a measure of affinity in units of concentration, obtained from inhibition or displacement. A low value points to higher affinity.
